This is an account of results in US7135466B2 (Kirin Beer Kabushiki Kaisha, priority 1999, dated 2006).

Broadly, the IC50 is the concentration at which inhibition is half-maximal. By inhibition is commonly meant the percentage by which the read-out fell short of the control.

For one assay, the target named is T1, c-kit (Homo sapiens, UniProt P10721).
T1 construct: MO7e (human megakaryocytic leukemia cell line) which had been arrested for 20 hr; endogenous in cells; host or cells: MO7e human megakaryocytic leukemia cell line
T1 sequence (P10721 26-976): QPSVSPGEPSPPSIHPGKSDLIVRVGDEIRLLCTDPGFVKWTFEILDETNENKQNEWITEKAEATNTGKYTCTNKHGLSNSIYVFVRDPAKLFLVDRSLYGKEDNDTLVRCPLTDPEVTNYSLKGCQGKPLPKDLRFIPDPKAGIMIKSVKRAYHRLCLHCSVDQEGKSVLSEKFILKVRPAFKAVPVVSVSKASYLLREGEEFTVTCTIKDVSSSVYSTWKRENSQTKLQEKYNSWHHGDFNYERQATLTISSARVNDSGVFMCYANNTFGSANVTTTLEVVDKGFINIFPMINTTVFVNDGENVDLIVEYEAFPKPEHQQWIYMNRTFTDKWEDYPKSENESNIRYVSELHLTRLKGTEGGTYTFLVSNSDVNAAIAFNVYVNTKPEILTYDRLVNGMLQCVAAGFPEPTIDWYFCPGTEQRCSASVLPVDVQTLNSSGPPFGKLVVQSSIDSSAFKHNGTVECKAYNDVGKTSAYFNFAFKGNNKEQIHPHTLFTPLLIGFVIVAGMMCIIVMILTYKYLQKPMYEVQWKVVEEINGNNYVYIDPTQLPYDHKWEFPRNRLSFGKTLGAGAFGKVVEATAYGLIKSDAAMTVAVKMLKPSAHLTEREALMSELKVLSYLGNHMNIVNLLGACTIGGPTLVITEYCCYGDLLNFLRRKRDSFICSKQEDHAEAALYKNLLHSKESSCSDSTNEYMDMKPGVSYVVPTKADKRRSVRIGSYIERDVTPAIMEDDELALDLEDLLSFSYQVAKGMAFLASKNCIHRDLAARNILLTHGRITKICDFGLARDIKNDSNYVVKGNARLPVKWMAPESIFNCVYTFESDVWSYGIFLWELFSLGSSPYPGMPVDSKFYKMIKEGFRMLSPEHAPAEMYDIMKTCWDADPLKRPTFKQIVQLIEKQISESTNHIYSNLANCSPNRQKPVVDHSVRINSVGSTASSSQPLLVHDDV
Kind of assay: Inhibitory activity against c-kit autophosphorylation (MO7e cells, h-SCF). Format: cell-based. Conditions: MO7e cells, h-SCF stimulation; read-out: c-kit IC50. The procedure, abridged:
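In this cellular autophosphorylation assay, compound-treated MO7e cells (1 hr) were challenged with human stem cell factor at 50 ng/ml for 5 min; detection relied on PY-20 capture and anti-c-kit/HRP immunodetection at 450 nm.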
Turning to `COc1cc2nccc(Oc3ccc(NC(=S)NC(=O)CCCCl)cc3F)c2cc1OC` [Example 1068, N-(4-Chlorobutanoyl)-N′-{4-[(6,7-dimethoxy-4-quinolyl)oxy]-3-fluorophenyl}thiourea], the IC50 was determined as 124 nM.

As for `COc1cc2nccc(Oc3ccc(NC(=S)NC(=O)CCSC)cc3F)c2cc1OC` [Example 1069, N-{4-[(6,7-Dimethoxy-4-quinolyl)oxy]-3-fluorophenyl}-N′-[3-(methylsulfanyl)propanoyl]thiourea], the 50% inhibitory concentration (IC50) was determined as 189 nM. The same measure, in the same setting: the figure for `COc1ccc(C(=O)NC(=S)Nc2ccc(Oc3ccnc4cc(OC)c(OC)cc34)c(F)c2)cc1OC` [Example 1070, N-(3,4-Dimethoxybenzoyl)-N′-{4-[(6,7-dimethoxy-4-quinolyl)oxy]-3-fluorophenyl}thiourea] is 391 nM; for `COc1ccc(C(=O)NC(=S)Nc2ccc(Oc3ccnc4cc(OC)c(OC)cc34)c(C)c2C)cc1` [Example 1087, N-{4-[(6,7-Dimethoxy-4-quinolyl)oxy]-2,3-dimethylphenyl}-N′-(4-methoxybenzoyl)thiourea] it is 495 nM. Same read-out and setting: the figure for `COc1cc2nccc(Oc3ccc(NC(=S)NC(=O)c4ccccc4)c(C)c3)c2cc1OC` [Example 1099, N-Benzoyl-N′-{4-[(6,7-dimethoxy-4-quinolyl)oxy]-2-methylphenyl}thiourea] is 552 nM. In the case of `COc1cc2nccc(Oc3ccc(NC(=S)NC(=O)c4ccc([N+](=O)[O-])cc4)cc3C)c2cc1OC` [Example 1108, N-{4-[(6,7-Dimethoxy-4-quinolyl)oxy]-3-methylphenyl}-N′-(4-nitrobenzoyl)thiourea], the IC50 is 962 nM.

As for `COc1cc2nccc(Oc3ccc(NC(=S)NC(=O)c4ccccc4)cc3C)c2cc1OC` [Example 1109, N-Benzoyl-N′-{4-[(6,7-dimethoxy-4-quinolyl)oxy]-3-methylphenyl}thiourea], the IC50 was found to be 353 nM. As for `COc1cc2nccc(Oc3ccc(NC(=S)NC(=O)c4cccc(C)c4)cc3C)c2cc1OC` [Example 1110, N-{4-[(6,7-Dimethoxy-4-quinolyl)oxy]-3-methylphenyl}-N′-(3-methylbenzoyl)thiourea], the IC50 came to 113 nM. Same read-out and setting: the figure for `COc1cc2nccc(Oc3ccc(NC(=S)NC(=O)c4ccc(Cl)cc4)cc3C)c2cc1OC` [Example 1111, N-(4-Chlorobenzoyl)-N′-{4-[(6,7-dimethoxy-4-quinolyl)oxy]-3-methylphenyl}thiourea] is 405 nM.

The assay is the same for the next values; noted with them: Mo7e, figure in parentheses in −( ); at 1000 nM.
Take `CCCCCCCCCCCCCC(=O)NC(=S)Nc1ccc(Oc2ccnc3cc(OC)c(OC)cc23)cc1F` [Example 1076, N-{4-[(6,7-Dimethoxy-4-quinolyl)oxy]-2-fluorophenyl}-N′-tetradecanoylthiourea]: the inhibition at 1 µM was 7%. The same measure, in the same setting: the figure for `COc1cc2nccc(Oc3ccc(NC(=S)NC(=O)c4ccccc4Cl)c(C)c3C)c2cc1OC` [Example 1078, N-(2-Chlorobenzoyl)-N′-{4-[(6,7-dimethoxy-4-quinolyl)oxy]-2,3-dimethylphenyl}thiourea] is 32%; for `COc1cc2nccc(Oc3ccc(NC(=S)NC(=O)c4cccc(C)c4)c(C)c3C)c2cc1OC` [Example 1079, N-{4-[(6,7-Dimethoxy-4-quinolyl)oxy]-2,3-dimethylphenyl}-N′-(3-methylbenzoyl)thiourea] it is 25%. Same read-out and setting: the figure for `COc1cc2nccc(Oc3ccc(NC(=S)NC(=O)c4ccc(C)cc4)c(C)c3C)c2cc1OC` [Example 1080, N-{4-[(6,7-Dimethoxy-4-quinolyl)oxy]-2,3-dimethylphenyl}-N′-(4-methylbenzoyl)thiourea] is 0%; for `COc1cc2nccc(Oc3ccc(NC(=S)NC(=O)c4ccc(Cl)cc4)c(C)c3C)c2cc1OC` [Example 1082, N-(4-Chlorobenzoyl)-N′-{4-[(6,7dimethoxy-4-quinolyl)oxy]-2,3-dimethylphenyl}thiourea] it is 15%.

In the case of `COc1cc2nccc(Oc3ccc(NC(=S)NC(=O)c4cccc(Cl)c4)c(C)c3C)c2cc1OC` [Example 1083, N-(3-Chlorobenzoyl)-N′-{4-[(6,7-dimethoxy-4-quinolyl)oxy]-2,3-dimethylphenyl}thiourea], the inhibition at 1 µM was found to be 30%. The same measure, in the same setting: the figure for `COc1cc2nccc(Oc3ccc(NC(=S)NC(=O)c4ccccc4)c(C)c3C)c2cc1OC` [Example 1084, N-Benzoyl-N′-{4-[(6,7-dimethoxy-4-quinolyl)oxy]-2,3-dimethylphenyl}thiourea] is 30%; for `COc1cc2nccc(Oc3ccc(NC(=S)NC(=O)c4ccccc4C)c(C)c3C)c2cc1OC` [Example 1085, N-{4-[(6,7-Dimethoxy-4-quinolyl)oxy]-2,3-dimethylphenyl}-N′-(2-methylbenzoyl)thiourea] it is 25%. Still for that read-out and setting: the figure for `COc1cc2nccc(Oc3ccc(NC(=S)NC(=O)c4ccc(F)cc4F)c(C)c3C)c2cc1OC` [Example 1088, N-(2,4-Difluorobenzoyl)-N′-{4-[(6,7-dimethoxy-4-quinolyl)oxy]-2,3-dimethylphenyl}thiourea] is 23%. Turning to `COc1cc2nccc(Oc3ccc(NC(=S)NC(=O)c4ccc(Cl)cc4)c(C)c3)c2cc1OC` [Example 1089, N-(4-Chlorobenzoyl)-N′-{4-[(6,7-dimethoxy-4-quinolyl)oxy]-2-methylphenyl}thiourea], the inhibition at 1 µM stood at 28%. On the same count and under the same terms, the figure for `COc1cc2nccc(Oc3ccc(NC(=S)NC(=O)c4ccccc4C)c(C)c3)c2cc1OC` [Example 1090, N-{4-[(6,7-Dimethoxy-4-quinolyl)oxy]-2-methylphenyl}-N′-(2-methylbenzoyl)thiourea] is 30%; for `COc1cc2nccc(Oc3ccc(NC(=S)NC(=O)c4cccc(F)c4)c(C)c3)c2cc1OC` [Example 1091, N-{4-[(6,7-Dimethoxy-4-quinolyl)oxy]-2-methylphenyl}-N′-(3-fluorobenzoyl)thiourea] it is 39%.

On to `COc1cc2nccc(Oc3ccc(NC(=S)NC(=O)c4ccc(F)cc4)c(C)c3)c2cc1OC` [Example 1093, N-{4-[(6,7-Dimethoxy-4-quinolyl)oxy]-2-methylphenyl}-N′-(4-fluorobenzoyl)thiourea], for which the inhibition at 1 µM was 32%. As for `COc1cc2nccc(Oc3ccc(NC(=S)NC(=O)c4ccccc4F)c(C)c3)c2cc1OC` [Example 1094, N-{4-[(6,7-Dimethoxy-4-quinolyl)oxy]-2-methylphenyl}-N′-(2-fluorobenzoyl)thiourea], the inhibition at 1 µM was 18%.

As to `COc1cc2nccc(Oc3ccc(NC(=S)NC(=O)c4ccccc4Cl)c(C)c3)c2cc1OC` [Example 1097, N-(2-Chlorobenzoyl)-N′-{4-[(6,7-dimethoxy-4-quinolyl)oxy]-2-methylphenyl}thiourea], the inhibition at 1 µM is 8%.

Regarding `COc1cc2nccc(Oc3ccc(NC(=S)NC(=O)c4cccc(C)c4)c(C)c3)c2cc1OC` [Example 1098, N-{4-[(6,7-Dimethoxy-4-quinolyl)oxy]-2-methylphenyl}-N′-(3-methylbenzoyl)thiourea], the inhibition at 1 µM came out at 41%. Same read-out and setting: the figure for `COc1cc2nccc(Oc3ccc(NC(=S)NC(=O)c4cccc(Cl)c4)c(C)c3)c2cc1OC` [Example 1100, N-(3-Chlorobenzoyl)-N′-{4-[(6,7-dimethoxy-4-quinolyl)oxy]-2-methylphenyl}thiourea] is 18%.
